Several values for one entry are separate records, joined by “and”; a condition that tells them apart may be missing. Equal entries are not always repeated.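 Following 48 hours of exposure in 96-well plates, responses at five concentrations were used to interpolate endpoints linearly. GI50: concentration for 50% inhibition of growth. TGI: total growth inhibition.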
Columns and labels:
Assay in all cases: inhibition of tumour cell growth, NCI panel, 48 h
CAKI-1 renal = system: CAKI-1 renal
DLD-1 colon = system: DLD-1 colon
DMS 273 small cell lung = system: DMS 273 small cell lung
HL-60(TB) leukemia = system: HL-60(TB) leukemia
NCI-H23 lung = system: NCI-H23 lung
OVCAR-5 ovarian = system: OVCAR-5 ovarian
SN12C renal = system: SN12C renal
SW-620 colon = system: SW-620 colon
A498 renal = system: A498 renal
MDA-MB-231 breast = system: MDA-MB-231 breast

Compound | TGI (CAKI-1 renal) | TGI (DLD-1 colon) [µM] | TGI (DMS 273 small cell lung) [µM] | TGI (HL-60(TB) leukemia) | TGI (NCI-H23 lung) | TGI (OVCAR-5 ovarian) | TGI (SN12C renal) | TGI (SW-620 colon) | GI50 (A498 renal) | TGI (A498 renal) | GI50 (CAKI-1 renal) | GI50 (HL-60(TB) leukemia) | GI50 (MDA-MB-231 breast) | TGI (MDA-MB-231 breast) | GI50 (NCI-H23 lung) | GI50 (OVCAR-5 ovarian) | GI50 (SN12C renal) | GI50 (SW-620 colon)
CN1C(=O)CCC1c1ccc2c(c1)oc(=O)n2C (stereo not drawn) | > 100 µM | > 100 | > 100 | > 100 µM | > 100 µM | > 100 µM | > 100 µM | > 100 µM |  |  |  |  |  |  |  |  |  | 
COc1cc(-c2nc(-c3ccc(-c4nc5ccc(F)cc5[nH]4)cc3)no2)cc(OC)c1OC | 9.13 µM |  |  | 5.35 µM | 8.35 µM | 34.5 µM | 38.3 µM | 16.1 µM | 4.19 µM | 26.1 µM | 2.76 µM | 2.24 µM | 2.39 µM | 7.66 µM | 2.5 µM | 5.59 µM | 3.59 µM | 3.61 µM
O=S1c2ccccc2NC(c2ccc3ccccc3c2)CC1c1ccccc1 (stereo not drawn) | 79 µM | 70.1 | 91.6 | 55.3 µM | 40.1 µM | > 100 µM | > 100 µM | 42.7 µM |  |  |  |  |  |  |  |  |  | 
O=C(Cn1c(C(=O)c2ccc(Cl)cc2)nc(-c2ccccc2)c1-c1ccccc1)c1ccc(Cl)cc1 | > 100 µM |  |  | > 100 µM | > 100 µM | > 100 µM | > 100 µM | > 100 µM | > 100 µM | > 100 µM | > 100 µM | > 100 µM | > 100 µM | > 100 µM | > 100 µM | > 100 µM | > 100 µM | > 100 µM
COc1ccc(C2=N[C@@H](c3ccc(Cl)cc3)[C@@H](c3ccc(Cl)cc3)N2C(=O)N2CCNC(=O)C2)c(OC(C)C)c1 | 24.7 µM and 12.9 µM and 14.5 µM |  |  | 35.8 µM and 42.3 µM and 51 µM | 32.1 µM and 33.2 µM and 34.8 µM | 34 µM and 32.2 µM and 34.1 µM | 34 µM and 29.9 µM and 28.7 µM | 33.6 µM and 37.4 µM and 34 µM | 12.6 µM and 6.1 µM and 9.23 µM | 25.6 µM and 21.9 µM and 24.1 µM | 11.7 µM and 1.63 µM and 2.35 µM | 15.1 µM and 18.1 µM and 18.5 µM | 17.2 µM and 13 µM and 14.8 µM | 38.4 µM and 27.1 µM and 29.6 µM | 16 µM and 15.8 µM and 16.4 µM | 17.1 µM and 16.3 µM and 17.3 µM | 15.6 µM and 14.9 µM and 14.1 µM | 17.1 µM and 18.2 µM and 16.7 µM
COc1ccc2c(c1)[nH]c(=O)c1c3cc(OC)c(OC)cc3cn21 | < 0.01 µM |  |  | < 0.0104 µM | 16.4 µM | 18.1 µM | 15.2 µM | 1.52 µM | < 0.01 µM | 0.072 µM | < 0.01 µM | < 0.01 µM | 0.0219 µM | 1.06 µM | < 0.0173 µM | 0.0411 µM | 0.0124 µM | < 0.01 µM
COc1ccc(OC(C)C(=O)O)c2c1CCCC2=O (stereo not drawn) |  | > 100 | > 100 | > 100 µM | > 100 µM | > 100 µM | > 100 µM | > 100 µM |  | > 100 µM |  |  |  |  |  |  |  | 
COc1ccc(-c2nc(-c3ccccn3)c(-c3ccccn3)n2CC(C)C)cc1OC1CCCC1 | 90.2 µM |  |  | 58.8 µM | > 165 µM | > 165 µM | > 165 µM | > 165 µM | 16.5 µM | 82.7 µM | 7.44 µM | 21.2 µM | 18.2 µM | 125 µM | 28.5 µM | 26.5 µM | 24.5 µM | 42 µM
Clc1ccc2nc(Cl)c3ccccc3c2c1 | > 100 µM |  |  | > 100 µM | > 100 µM | > 100 µM | > 100 µM | > 100 µM | 2.22 µM | 9.85 µM | > 100 µM | > 100 µM | 7.27 µM | 33.2 µM | 74.9 µM | 22.1 µM | 28 µM | > 100 µM
O=C1CC(c2ccsc2)c2snc(-c3ccc(Cl)cc3)c2N1 (stereo not drawn) | > 100 µM |  |  | 3.33 µM | > 100 µM | > 100 µM | > 100 µM | > 100 µM | 1.09 µM | 7.94 µM | 1.03 µM | 1.11 µM | 1.33 µM | > 100 µM | 1.76 µM | 5.92 µM | 3.77 µM | 0.429 µM
C[C@@H](Oc1cc(-n2cnc3ccc(OCC4CCN(C)CC4)cc32)sc1C(N)=O)c1ccccc1Cl | 4.81 µM |  |  | 0.543 µM | 3.64 µM | 4.19 µM | 4.52 µM | 3.27 µM | 0.0927 µM | 0.713 µM | 0.774 µM | 0.044 µM | 0.0924 µM | 2.15 µM | 0.103 µM | 0.113 µM | 0.344 µM | 0.0267 µM
COc1cc2cnc(-c3ccccc3)cc2cc1OC | 62.4 µM |  |  | 59.7 µM | 56.7 µM | > 100 µM | 22.2 µM | > 100 µM |  | 21.2 µM |  |  |  | 48.2 µM |  |  |  | 
CCOc1cc2c(=O)oc3c(OC)ccc4ccc(c1OC)c2c43 | > 100 µM |  |  | > 100 µM | > 100 µM | > 100 µM | > 100 µM | > 100 µM |  | > 100 µM |  |  |  | 97.5 µM |  |  |  | 
CN(C)C(=S)/N=c1\ss/c(=N\C(=S)N(C)C)n1Cc1ccco1 | > 100 µM | > 100 | > 100 | > 100 µM |  |  | > 100 µM | > 100 µM |  | > 100 µM |  |  |  |  |  |  |  | 
O=C1CCNC(=O)NC1 | > 100 µM | > 100 | > 100 | > 100 µM |  | > 100 µM | > 100 µM | > 100 µM |  | > 100 µM |  |  |  |  |  |  |  | 
NC(CCc1ncc(-c2ccccc2)s1)C(=O)O (stereo not drawn) | > 100 µM | > 100 | > 100 | > 100 µM | > 100 µM |  | > 100 µM | > 100 µM |  | > 100 µM |  |  |  |  |  |  |  | 
CNC(=O)c1cc(Oc2ccc3nc(N[C@@H]4CCCC[C@H]4O)sc3c2)ccn1 | > 100 µM |  |  | > 100 µM | > 100 µM | > 100 µM | > 100 µM | > 100 µM | > 40.5 µM | > 100 µM | 44.9 µM | 62.5 µM | 82.2 µM | > 100 µM | 59.3 µM | > 100 µM | > 100 µM | > 100 µM
O=C(CCN1CCCC1)Nc1ccc2c(NCCc3ccccc3)c3ccccc3nc2c1 | 5.68 µM |  |  | 1.67 µM | 1.39 µM | 2.13 µM | 1.45 µM | 1.36 µM | 0.422 µM | 1.8 µM | 1.5 µM | 0.389 µM | 0.452 µM | 1.82 µM | 0.374 µM | 0.506 µM | 0.358 µM | 0.3 µM
